Assays:
[1] = tested on: Tyrosine-protein kinase ABL1 (Homo sapiens), P00519 [T315I]; conditions: Compound concentration 1000.0 nM
[2] = target: Beta-1 adrenergic receptor (Homo sapiens, UniProt P08588); assay: GPCRScan assay: inhibition of Beta1; design: radioligand conc. used [nm] 0.1 – 0.2, parental cells CHO Flp-In
[3] = target: Serine/threonine-protein kinase/endoribonuclease IRE1 (Homo sapiens) (UniProt O75460); conditions: Compound concentration 1000.0 nM
[4] = tested on: Receptor-type tyrosine-protein kinase FLT3 (Homo sapiens), P36888 [D835Y]; conditions: Compound concentration 1000.0 nM
[5] = target: 5-hydroxytryptamine receptor 3A (Homo sapiens) (UniProt P46098); conditions: Compound concentration 10.0 uM
Chain of 5-hydroxytryptamine receptor 3A (Homo sapiens) (P46098 whole entry): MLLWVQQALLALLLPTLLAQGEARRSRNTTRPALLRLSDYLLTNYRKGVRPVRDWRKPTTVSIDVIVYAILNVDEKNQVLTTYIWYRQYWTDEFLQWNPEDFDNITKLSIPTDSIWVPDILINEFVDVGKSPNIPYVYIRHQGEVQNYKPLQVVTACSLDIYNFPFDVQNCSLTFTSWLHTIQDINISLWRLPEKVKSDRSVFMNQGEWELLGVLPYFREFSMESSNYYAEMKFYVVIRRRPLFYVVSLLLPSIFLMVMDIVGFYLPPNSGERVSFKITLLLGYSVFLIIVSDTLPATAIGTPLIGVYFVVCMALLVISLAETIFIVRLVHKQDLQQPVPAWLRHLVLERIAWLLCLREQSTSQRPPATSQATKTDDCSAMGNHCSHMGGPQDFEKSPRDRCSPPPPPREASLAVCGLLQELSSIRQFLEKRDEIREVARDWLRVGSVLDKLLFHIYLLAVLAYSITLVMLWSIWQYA

[6] = tested on: Receptor-type tyrosine-protein kinase FLT3 (Homo sapiens), P36888 [N841I]; conditions: Compound concentration 1000.0 nM
[7] = target: Insulin-like growth factor 1 receptor (Homo sapiens) (UniProt P08069); conditions: Compound concentration 1000.0 nM
[8] = target: Ephrin type-A receptor 6 (Homo sapiens) (UniProt Q9UF33); conditions: Compound concentration 1000.0 nM
[9] = tested on: Tyrosine-protein kinase ABL1 (Homo sapiens), P00519 [M351T]; conditions: Compound concentration 1000.0 nM
[10] = target: Receptor-interacting serine/threonine-protein kinase 2 (Homo sapiens) (UniProt O43353); conditions: Compound concentration 1000.0 nM
[11] = target: 5-hydroxytryptamine receptor 7 (Homo sapiens) (UniProt P34969); conditions: Compound concentration 10.0 uM
[12] = target: GABA-A receptor; anion channel (Rattus norvegicus) (UniProt O09028+P15431+P18506+P18508+P19969+P20236+P23574+P23576+P28471+P28473+P30191+P62813+P63079+P63138+Q91ZM7+Q9ES14); conditions: Compound concentration 10.0 uM
[13] = target: Sodium-dependent serotonin transporter (Homo sapiens) (UniProt P31645); conditions: Compound concentration 10.0 uM
[14] = target: Cyclin-G-associated kinase (Homo sapiens) (UniProt O14976); conditions: Compound concentration 1000.0 nM
[15] = target: Mitogen-activated protein kinase 7 (Homo sapiens) (UniProt Q13164); conditions: Compound concentration 1000.0 nM
[16] = tested on: Mast/stem cell growth factor receptor Kit (Homo sapiens), P10721 [D816H]; conditions: Compound concentration 1000.0 nM
Chain of Mast/stem cell growth factor receptor Kit (Homo sapiens), P10721 [D816H] (P10721 whole entry D816H): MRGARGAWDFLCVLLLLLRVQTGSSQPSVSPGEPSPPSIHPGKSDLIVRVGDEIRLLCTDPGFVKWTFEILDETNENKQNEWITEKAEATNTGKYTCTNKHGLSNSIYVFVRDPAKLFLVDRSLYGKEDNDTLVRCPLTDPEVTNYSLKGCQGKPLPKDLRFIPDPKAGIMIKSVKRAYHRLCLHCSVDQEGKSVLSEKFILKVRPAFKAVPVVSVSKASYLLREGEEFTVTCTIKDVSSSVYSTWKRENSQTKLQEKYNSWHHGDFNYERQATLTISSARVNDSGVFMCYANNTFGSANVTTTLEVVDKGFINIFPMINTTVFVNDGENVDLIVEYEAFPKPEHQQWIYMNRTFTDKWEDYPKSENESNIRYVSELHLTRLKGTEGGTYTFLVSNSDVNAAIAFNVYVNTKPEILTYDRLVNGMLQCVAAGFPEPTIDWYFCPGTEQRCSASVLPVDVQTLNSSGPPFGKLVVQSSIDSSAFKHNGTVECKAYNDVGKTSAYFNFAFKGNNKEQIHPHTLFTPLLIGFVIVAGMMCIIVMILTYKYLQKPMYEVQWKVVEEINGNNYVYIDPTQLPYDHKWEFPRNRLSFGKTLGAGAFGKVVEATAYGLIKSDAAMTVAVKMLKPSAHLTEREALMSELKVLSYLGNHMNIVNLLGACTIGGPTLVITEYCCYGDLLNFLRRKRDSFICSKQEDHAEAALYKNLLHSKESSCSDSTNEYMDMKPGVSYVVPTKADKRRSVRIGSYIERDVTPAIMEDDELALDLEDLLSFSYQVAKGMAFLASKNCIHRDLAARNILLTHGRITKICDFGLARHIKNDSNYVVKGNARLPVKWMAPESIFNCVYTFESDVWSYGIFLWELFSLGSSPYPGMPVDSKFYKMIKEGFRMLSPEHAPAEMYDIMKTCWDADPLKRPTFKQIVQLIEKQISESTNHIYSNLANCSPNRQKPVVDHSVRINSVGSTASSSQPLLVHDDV

[17] = target: Protein kinase C iota type (Homo sapiens) (UniProt P41743); conditions: Compound concentration 1000.0 nM
[18] = target: Serine/threonine-protein kinase TAO3 (Homo sapiens) (UniProt Q9H2K8); conditions: Compound concentration 1000.0 nM
[19] = target: Mitogen-activated protein kinase kinase kinase 19 (Homo sapiens) (UniProt Q56UN5); conditions: Compound concentration 1000.0 nM
[20] = target: Dual specificity mitogen-activated protein kinase kinase 2 (Homo sapiens) (UniProt P36507); conditions: Compound concentration 1000.0 nM
[21] = target: Serine/threonine-protein kinase 32A (Homo sapiens) (UniProt Q8WU08); conditions: Compound concentration 1000.0 nM
[22] = target: Serine/threonine-protein kinase D2 (Homo sapiens) (UniProt Q9BZL6); conditions: Compound concentration 1000.0 nM
[23] = tested on: Epidermal growth factor receptor (Homo sapiens), P00533 [G719C]; conditions: Compound concentration 1000.0 nM
[24] = target: Testis-specific serine/threonine-protein kinase 1 (Homo sapiens) (UniProt Q9BXA7); conditions: Compound concentration 1000.0 nM
[25] = target: BMP-2-inducible protein kinase (Homo sapiens) (UniProt Q9NSY1); conditions: Compound concentration 1000.0 nM
[26] = target: Serine/threonine-protein kinase ICK (Homo sapiens) (UniProt Q9UPZ9); conditions: Compound concentration 1000.0 nM
[27] = target: Serine/threonine-protein kinase Nek11 (Homo sapiens) (UniProt Q8NG66); conditions: Compound concentration 1000.0 nM
[28] = target: G protein-coupled receptor kinase 3 (Homo sapiens) (UniProt P35626); conditions: Compound concentration 1000.0 nM
[29] = target: Serine/threonine-protein kinase pim-3 (Homo sapiens) (UniProt Q86V86); conditions: Compound concentration 1000.0 nM
[30] = target: Cyclin-dependent kinase 17 (Homo sapiens) (UniProt Q00537); conditions: Compound concentration 1000.0 nM
Chain of Cyclin-dependent kinase 17 (Homo sapiens) (Q00537 whole entry, looked up): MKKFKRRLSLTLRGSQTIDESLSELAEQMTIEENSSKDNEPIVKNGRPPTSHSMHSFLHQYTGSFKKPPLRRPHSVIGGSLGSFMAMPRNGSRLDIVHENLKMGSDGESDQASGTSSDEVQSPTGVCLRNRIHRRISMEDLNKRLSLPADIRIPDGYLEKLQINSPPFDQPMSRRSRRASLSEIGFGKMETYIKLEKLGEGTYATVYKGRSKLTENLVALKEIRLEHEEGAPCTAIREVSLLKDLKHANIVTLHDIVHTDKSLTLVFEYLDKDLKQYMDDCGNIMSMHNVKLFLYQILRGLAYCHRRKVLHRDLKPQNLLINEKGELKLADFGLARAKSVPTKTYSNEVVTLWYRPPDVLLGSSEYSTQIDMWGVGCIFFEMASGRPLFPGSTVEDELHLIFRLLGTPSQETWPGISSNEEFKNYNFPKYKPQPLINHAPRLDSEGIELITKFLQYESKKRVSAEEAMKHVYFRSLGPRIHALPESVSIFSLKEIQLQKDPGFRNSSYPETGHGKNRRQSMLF

[31] = target: Serine/threonine-protein kinase ULK3 (Homo sapiens) (UniProt Q6PHR2); conditions: Compound concentration 1000.0 nM
[32] = target: Serine/threonine-protein kinase PLK1 (Homo sapiens) (UniProt P53350); conditions: Compound concentration 1000.0 nM
Chain of Serine/threonine-protein kinase PLK1 (Homo sapiens) (P53350 whole entry): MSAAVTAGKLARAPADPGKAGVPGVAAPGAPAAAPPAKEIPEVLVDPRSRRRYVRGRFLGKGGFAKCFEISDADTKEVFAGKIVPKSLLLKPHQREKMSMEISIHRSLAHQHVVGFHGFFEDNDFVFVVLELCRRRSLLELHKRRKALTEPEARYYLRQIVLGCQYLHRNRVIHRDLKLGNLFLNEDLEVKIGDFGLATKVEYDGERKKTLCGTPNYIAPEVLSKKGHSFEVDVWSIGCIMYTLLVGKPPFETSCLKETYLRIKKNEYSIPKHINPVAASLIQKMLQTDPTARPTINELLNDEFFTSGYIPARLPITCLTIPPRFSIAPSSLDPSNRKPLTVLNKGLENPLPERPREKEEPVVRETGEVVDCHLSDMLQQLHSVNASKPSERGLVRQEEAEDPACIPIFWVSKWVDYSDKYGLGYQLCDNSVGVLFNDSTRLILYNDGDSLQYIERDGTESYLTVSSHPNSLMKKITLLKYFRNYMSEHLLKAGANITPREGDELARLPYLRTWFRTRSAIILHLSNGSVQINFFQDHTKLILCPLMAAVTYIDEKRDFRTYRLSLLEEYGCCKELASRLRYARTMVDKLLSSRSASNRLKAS

[33] = target: NUAK family SNF1-like kinase 1 (Homo sapiens) (UniProt O60285); conditions: Compound concentration 1000.0 nM
[34] = target: Mitogen-activated protein kinase kinase kinase 4 (Homo sapiens) (UniProt Q9Y6R4); conditions: Compound concentration 1000.0 nM
Chain of Mitogen-activated protein kinase kinase kinase 4 (Homo sapiens) (Q9Y6R4 whole entry): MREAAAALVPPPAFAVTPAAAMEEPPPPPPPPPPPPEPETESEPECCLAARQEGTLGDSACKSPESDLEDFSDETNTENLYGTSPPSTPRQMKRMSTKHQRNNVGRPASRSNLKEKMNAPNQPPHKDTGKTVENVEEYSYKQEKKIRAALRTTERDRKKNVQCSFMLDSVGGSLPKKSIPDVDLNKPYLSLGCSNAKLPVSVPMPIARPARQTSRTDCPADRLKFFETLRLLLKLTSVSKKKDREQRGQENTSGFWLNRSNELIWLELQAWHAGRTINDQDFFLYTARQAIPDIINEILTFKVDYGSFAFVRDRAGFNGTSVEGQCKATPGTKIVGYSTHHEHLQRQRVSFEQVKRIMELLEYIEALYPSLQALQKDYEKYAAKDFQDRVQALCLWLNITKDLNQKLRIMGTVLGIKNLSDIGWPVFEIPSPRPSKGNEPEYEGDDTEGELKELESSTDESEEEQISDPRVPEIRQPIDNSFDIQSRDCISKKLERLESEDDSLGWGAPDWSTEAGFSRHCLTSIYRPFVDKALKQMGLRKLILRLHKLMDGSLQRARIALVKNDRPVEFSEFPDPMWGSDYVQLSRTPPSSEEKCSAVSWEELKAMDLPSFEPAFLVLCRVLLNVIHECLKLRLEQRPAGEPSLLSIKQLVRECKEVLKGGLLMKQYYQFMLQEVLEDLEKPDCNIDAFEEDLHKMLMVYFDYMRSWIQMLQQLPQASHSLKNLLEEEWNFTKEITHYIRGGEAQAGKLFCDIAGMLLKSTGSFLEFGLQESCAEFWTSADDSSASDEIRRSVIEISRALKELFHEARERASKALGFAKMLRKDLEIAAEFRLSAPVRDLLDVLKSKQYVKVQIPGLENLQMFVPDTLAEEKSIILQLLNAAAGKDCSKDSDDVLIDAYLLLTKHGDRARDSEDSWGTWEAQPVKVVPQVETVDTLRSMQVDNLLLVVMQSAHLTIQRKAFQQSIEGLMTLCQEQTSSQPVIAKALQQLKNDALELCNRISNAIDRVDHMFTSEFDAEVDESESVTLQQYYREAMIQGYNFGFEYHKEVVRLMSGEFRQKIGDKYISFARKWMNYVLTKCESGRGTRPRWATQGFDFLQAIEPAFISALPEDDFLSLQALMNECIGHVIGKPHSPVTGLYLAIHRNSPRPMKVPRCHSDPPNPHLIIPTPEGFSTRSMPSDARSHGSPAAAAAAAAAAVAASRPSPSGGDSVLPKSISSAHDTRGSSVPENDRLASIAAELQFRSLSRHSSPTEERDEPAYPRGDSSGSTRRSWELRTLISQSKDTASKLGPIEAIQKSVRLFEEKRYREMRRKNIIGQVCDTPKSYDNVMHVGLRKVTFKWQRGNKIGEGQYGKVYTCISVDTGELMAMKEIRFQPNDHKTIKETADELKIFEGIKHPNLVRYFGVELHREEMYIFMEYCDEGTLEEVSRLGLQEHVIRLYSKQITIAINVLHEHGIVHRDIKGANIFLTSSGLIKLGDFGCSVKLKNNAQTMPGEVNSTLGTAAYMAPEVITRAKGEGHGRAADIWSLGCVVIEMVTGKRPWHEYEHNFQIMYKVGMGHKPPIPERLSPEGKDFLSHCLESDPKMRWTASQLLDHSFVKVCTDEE

[35] = target: Serine/threonine-protein kinase TBK1 (Homo sapiens) (UniProt Q9UHD2); conditions: Compound concentration 1000.0 nM
[36] = target: Muscarinic acetylcholine receptor M3 (Homo sapiens) (UniProt P20309); conditions: Compound concentration 10.0 uM
[37] = target: Ribosomal protein S6 kinase alpha-2 (Homo sapiens) (UniProt Q15349); conditions: Compound concentration 1000.0 nM
[38] = target: Mitogen-activated protein kinase 4 (Homo sapiens) (UniProt P31152); conditions: Compound concentration 1000.0 nM
[39] = target: Tyrosine-protein kinase ABL1 (Homo sapiens) (UniProt P00519); conditions: Compound concentration 1000.0 nM
[40] = tested on: Mast/stem cell growth factor receptor Kit (Homo sapiens), P10721 [V559D,T670I]; conditions: Compound concentration 1000.0 nM
Chain of Mast/stem cell growth factor receptor Kit (Homo sapiens), P10721 [V559D,T670I] (P10721 whole entry V559D/T670I): as the sequence (P10721 whole entry D816H) above, with V559D, T670I, H816D counted along it

[41] = target: Ephrin type-B receptor 1 (Homo sapiens) (UniProt P54762); conditions: Compound concentration 1000.0 nM
[42] = tested on: Epidermal growth factor receptor (Homo sapiens), P00533 [UNDEFINED MUTATION]; conditions: Compound concentration 1000.0 nM
[43] = target: Calcium/calmodulin-dependent protein kinase type IV (Homo sapiens) (UniProt Q16566); conditions: Compound concentration 1000.0 nM

Chain of Beta-1 adrenergic receptor (P08588 whole entry): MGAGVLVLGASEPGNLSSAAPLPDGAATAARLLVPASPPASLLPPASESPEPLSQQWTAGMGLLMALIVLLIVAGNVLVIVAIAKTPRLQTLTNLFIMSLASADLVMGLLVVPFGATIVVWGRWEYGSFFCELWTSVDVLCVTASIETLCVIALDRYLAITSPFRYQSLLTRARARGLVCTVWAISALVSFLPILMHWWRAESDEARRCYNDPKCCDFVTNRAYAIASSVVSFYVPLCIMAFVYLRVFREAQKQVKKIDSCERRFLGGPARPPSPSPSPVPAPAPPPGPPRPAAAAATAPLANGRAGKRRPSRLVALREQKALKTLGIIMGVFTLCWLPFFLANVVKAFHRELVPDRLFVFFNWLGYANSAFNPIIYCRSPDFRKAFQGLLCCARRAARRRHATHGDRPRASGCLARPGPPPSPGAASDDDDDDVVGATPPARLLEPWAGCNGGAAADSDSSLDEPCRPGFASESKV

Question: What does the source list for `CC(=O)C1=C(C)N(c2cccc(C(F)(F)F)c2)C(=O)N[C@@H]1c1ccc(C#N)nc1` [BAY-678]?
Answer: residual activity [1]: 96.9%; Ki ([2]; read-out: Ki): 5.45 µM; Ki ([2]; read-out: pKi (converted)): 5.01 µM; residual activity [3]: 100%; residual activity [4]: 93.9%; inhibition [5]: -7.63%; residual activity [6]: 73.8%; residual activity [7]: 100%; residual activity [8]: 94.5%; residual activity [9]: 100%; residual activity [10]: 98.7%; inhibition [11]: 3.93%; inhibition [12]: 11.9%; inhibition [13]: -2.61%; residual activity [14]: 97.2%; residual activity [15]: 100%; residual activity [16]: 100%; residual activity [17]: 100%; residual activity [18]: 73%; residual activity [19]: 93%; residual activity [20]: 84.2%; residual activity [21]: 100%; residual activity [22]: 98.8%; residual activity [23]: 100%; residual activity [24]: 100%; residual activity [25]: 100%; residual activity [26]: 100%; residual activity [27]: 100%; residual activity [28]: 92.6%; residual activity [29]: 100%; residual activity [30]: 100%; residual activity [31]: 100%; residual activity [32]: 100%; residual activity [33]: 93.2%; residual activity [34]: 100%; residual activity [35]: 89.5%; inhibition [36]: 10.4%; residual activity [37]: 100%; residual activity [38]: 100%; residual activity [39]: 83.3%; residual activity [40]: 96.7%; residual activity [41]: 100%; residual activity [42]: 92.9%; residual activity [43]: 54.3%

Source: ChEMBL document CHEMBL4507272 (2021)
